According to patent EP0641792A1, “1,2-Dithiole derivatives and therapeutic agents containing them” (MITSUI TOATSU CHEMICALS, Inc., priority 1993, dated 1995):

What was measured:
[1] = Solubility in water (Test Example 2); assay type: physicochemical; details: 5% aqueous glucose solution, saline or isotonic
Description: (§1) Solubility in 5% aqueous glucose solution was measured.

Male SD rats [2] = assay: Inhibitory action of reperfusion arrhythmia (Evaluation Example 5; coronary artery ligation 5 minutes, reperfusion 10 minutes); assay type: in vivo, rat; details: 1.0 mg/kg intravenously 5 minutes before obstruction of coronary artery
Description: (§2) Male SD rats of 8-12 week age were anesthetized with pentobarbital and subjected to thoracotomy under artificial respiration. The left anterior descending coronary artery of each rat was ligated for 5 minutes and then subjected to reperfusion for 10 minutes. An electrocardiograph in standard bipolar limb lead II was recorded for each rat to examine the occurrence of ventricular arrhythmia. Each test compound was intravenously administered 5 minutes before the obstruction of coronary artery. For comparison, the same evaluation was conducted also on the 5-(4-methoxy-3-sulfophenyl)-3H-1,2-dithiole-3-thione sodium salt described in Eur. J. Med. Chem. 15, 405 (1980). [drawing 95]

Male SD rats [3] = assay: Inhibitory action for disappearance of enzyme in myocardial cells after ischemia and reperfusion (Evaluation Example 6); assay type: in vivo, rat; details: for Mortality (%) / CPK activity (U/mg protein) (Non-ischemia territory)-(ischemia and reperfusion territory): 1.0 mg/kg intravenously, ligation 20 minutes, reperfusion 2 hours; for CPK activity (U/mg protein) (Non-ischemia territory)-(ischemia and reperfusion territory): left ventricle, average value ± standard error
Description: Male SD rats of 7-12 week age were anesthetized with pentobarbital and subjected to thoracotomy under artificial respiration. The left anterior descending coronary artery of each rat was ligated for 20 minutes and then subjected to reperfusion for 2 hours. Then, the heart of each rat was enucleated and the left ventricle was separated. The left ventricle was homogenized to measure the activity of creatine phosphokinase (CPK) remaining in the ventricle. Each test compound was intravenously administered 5 minutes before the obstruction of coronary artery. For comparison, the same evaluation was conducted also on the 4-(4-methoxy-3-sulfophenyl)-5-phenyl-3H-1,2-dithiole-3-thione sodium salt described in Bull. […] Chim. […] In Table 18 are shown the differences in CPK activity between non-ischemia territory and ischemia and reperfusion territory of left ventricle, of test compounds and control.
In Table 18, CPK activity indicates (average value ± standard error), and n indicates the number of tested rats.

peroxylipid [4] = assay: Inhibitory action for formation of peroxylipid (Evaluation Example 4; MDA, thiobarbituric acid method); assay type: biochemical; details: rat brain homogenate, 37°C for 60 minutes; test compound 10⁻⁴ M; n=2
Description: (§3) Male SD rats of 7-10 week age were anesthetized with pentobarbital and then subjected to dehematization. Thereafter, their brains were enucleated. The brain tissues were homogenized with a phosphate buffer solution with ice-cooling. Each of the 5% homogenates was incubated at 37°C for 60 minutes to form malondialdehyde (MDA). The amount of MDA was determined by measuring the absorbance at 535 nm according to the thiobarbituric acid method. Using this MDA amount (a) and a control value (b) (a MDA amount when no test compound was added), the inhibition (%) for formation of peroxylipid, of test compound was calculated from the following formula. Inhibition (%) for formation of peroxylipid = [(b-a)/b]x100 [formula] Each test compound was added to the homogenate before the incubation.
(§4) Incidentally, the concentration of each test compound was 10⁻⁴ M, and the number of rats used for each test compound was n=2.

peroxylipid [5] = assay: Inhibitory action for formation of peroxylipid (Evaluation Example 1; MDA, thiobarbituric acid method); assay type: biochemical; details: rat brain homogenate, 37°C for 60 minutes; test compound 10⁻⁴ M; n=2
Description: as §3, §4

[6] = Solubility in water (Test Example 1); assay type: physicochemical; details: 5% aqueous glucose solution, saline or isotonic
Description: as §1

Male SD rats [7] = assay: Inhibitory action for reperfusion arrhythmia (Evaluation Example 2; coronary artery ligation 5 minutes, reperfusion 10 minutes); assay type: in vivo, rat; details: 1.0 mg/kg intravenously 5 minutes before obstruction of coronary artery
Description: as §2, with “A” for “Each”, “93]” for “95]”

Male SD rats [8] = assay: Inhibitory action for disappearance of enzyme in myocardial cells after ischemia and reperfusion (Evaluation Example 3); assay type: in vivo, rat; details: 1.0 mg/kg intravenously; ligation 20 minutes, reperfusion 2 hours; left ventricle; average value ± standard error
Description: Male SD rats of 7-12 week age were anesthetized with pentobarbital and subjected to thoracotomy under artificial respiration. The left anterior descending coronary artery of each rat was ligated for 20 minutes and then subjected to reperfusion for 2 hours. Then, the heart of each rat was enucleated and the left ventricle was separated. The left ventricle was homogenized to measure the activity of creatine phosphokinase (CPK) remaining in the ventricle. A test compound was intravenously administered 5 minutes before the obstruction of coronary artery. In Table 15 are shown the differences in CPK activity between non-ischemia territory and ischemia and reperfusion territory of left ventricle, of test compound and control.
In Table 15, CPK activity indicates (average value ± standard error), and n indicates the number of tested rats.

| SMILES | Mortality (%) (Male SD rats [2]) | VF incidence (VF rats)/(tested rats) (%) (Male SD rats [2]) | Mortality (%) (Male SD rats [3]) | CPK activity (U/mg protein) (Non-ischemia territory)-(ischemia and reperfusion territory) (Male SD rats [3]) | Inhibition (%) (peroxylipid [4]) | Inhibition (%) (peroxylipid [5]) | solubility [6] | also measured |
| --- | --- | --- | --- | --- | --- | --- | --- | --- |
| CCCCCCc1ssc(=S)c1Cc1ccc(OC)c(S(=O)(=O)[O-])c1.[Na+] [Production Example 26, 5-hexyl-4-(4-methoxy-3-sulfobenzyl)-3H-1,2-dithiole-3-thione sodium salt] | 2/6 (33.3) % | 3/6 (50.0) % | 33.3% | 0.70 ± 0.23 (n=9) U/mg protein | 100% |  |  | solubility [1]: ≥ 10000 µg/mL |
| COc1cc2c(cc1S(=O)(=O)[O-])CCc1c-2ssc1=S.[Na+] [Production Example 3, 4,5-dihydro-8-methoxy-7-sulfo-3H-naphtho-[1,2-c]-1,2-dithiole-3-thione sodium salt] |  |  |  |  |  | 100% | ≥ 10000 µg/mL |  |
| COc1ccc(-c2c(-c3ccc(C)cc3)ssc2=S)cc1S(=O)(=O)[O-].[Na+] [Production Example 34, 4-(4-methoxy-3-sulfophenyl)-5-(p-tolyl)-3H-1,2-dithiole-3-thione sodium salt] | 2/7 (28.6) % | 3/7 (42.9) % | 40.0% | 0.81 ± 0.43 (n=10) U/mg protein | 100% |  |  | solubility [1]: ≥ 10000 µg/mL |
| COc1ccc(-c2c(-c3ccccc3)ssc2=S)cc1S(=O)(=O)[O-].[Na+] [Compound in literature, 4-(4-methoxy-3-sulfophenyl)-5-phenyl-3H-1,2-dithiole-3-thione sodium salt, reference compound] |  |  |  |  |  |  |  | effect on disappearance of creatine phosphokinase from myocardial cells and on rat mortality (Male SD rats [3]; result in words, versus control): no significant effect |
| O=S(=O)([O-])c1ccc2c(c1)-c1ssc(=S)c1CO2.[Na+] [Production Example 13, 8-sulfo-3H,4H-benzopyrano[4,3-c]-1,2-dithiole-3-thione sodium salt] |  |  |  |  |  | 100% | ≥ 10000 µg/mL |  |
| COc1cc2c(cc1S(=O)(=O)[O-])-c1ssc(=S)c1CC2.[Na+] [Production Example 4, 4,5-dihydro-7-methoxy-8-sulfo-3H-naphtho[1,2-c]-1,2-dithiole-3-thione sodium salt] |  |  |  |  |  | 100% | ≥ 10000 µg/mL | Mortality (%) (Male SD rats [7]): 2/5 (40.0) %; VF incidence (VF rats)/(tested rats) (%) (Male SD rats [7]): 2/5 (40.0) %; CPK activity (U/mg protein) (Non-ischemia territory)-(ischemia and reperfusion territory) (Male SD rats [8]): 1.36 ± 0.34 (n=7) U/mg protein |
| O=S(=O)([O-])c1ccc(Cc2c(-c3ccccc3)ssc2=S)cc1.[Na+] [Production Example 39, 5-phenyl-4-(4-sulfobenzyl)-3H-1,2-dithiole-3-thione sodium salt] | 0/4 (0.0) % | 1/4 (25.0) % | 12.5% | 0.84 ± 0.18 (n=8) U/mg protein | 100% |  |  |  |
| COc1cc2c(cc1S(=O)(=O)[O-])OCc1c-2ssc1=S.[Na+] [Production Example 12, 8-methoxy-7-sulfo-3H,4H-benzopyrano-[4,3-c]-1,2-dithiole-3-thione sodium salt] |  |  |  |  |  | 100% | ≥ 10000 µg/mL |  |
| CCOc1cc2c(cc1S(=O)(=O)[O-])-c1ssc(=S)c1CC2.[Na+] [Production Example 5, 4,5-dihydro-7-ethoxy-8-sulfo-3H-naphtho-[1,2-c]-1,2-dithiol-3-thione sodium salt] |  |  |  |  |  | 100% | ≥ 10000 µg/mL |  |
